pIC50: −log10 of the molar value.
Legend:
[1] = target: Aldo-keto reductase family 1 member B1 (Rattus norvegicus, UniProt P07943); assay: Inhibition of aldose reductase in rat lens homogenates by fluorophotometer
[2] = system: Platelet; assay: Inhibition of thrombin-induced platelet aggregation in washed rabbit platelets at 0.1 mM treated 2 mins before thrombin challenge by aggregometer; format: functional; details: Oryctolagus cuniculus
[3] = system: Platelet; assay: Inhibition of thrombin-induced platelet aggregation in washed rabbit platelets at 0.5 mM treated 2 mins before thrombin challenge by aggregometer; format: functional; details: Oryctolagus cuniculus
[4] = system: Platelet; assay: Inhibition of thrombin-induced platelet aggregation in washed rabbit platelets at 1.0 mM treated 2 mins before thrombin challenge by aggregometer; format: functional; details: Oryctolagus cuniculus
[5] = target: Aldo-keto reductase family 1 member B1 (Rattus norvegicus) (UniProt P07943); assay: Inhibition of aldose reductase in rat lens homogenates at 30 uM by fluorophotometry

pIC50 [1]	Compound	also measured
4.74	C[C@@H]1O[C@@H](O[C@H]2[C@H](Oc3c(-c4ccc(O)c(O)c4)oc4cc(O)cc(O)c4c3=O)O[C@H](CO)[C@H](O)[C@@H]2O)[C@H](O)[C@H](O)[C@H]1O	
4.89	C[C@@H]1O[C@@H](OC[C@H]2O[C@@H](Oc3c(-c4ccc(O)c(O)c4)oc4cc(O)cc(O)c4c3=O)[C@H](O)[C@@H](O)[C@@H]2O)[C@H](O)[C@H](O)[C@H]1O [RUTIN]	
5.01	COc1cc(-c2oc3cc(O)cc(O)c3c(=O)c2O[C@@H]2O[C@H](CO[C@@H]3O[C@@H](C)[C@H](O)[C@@H](O)[C@H]3O)[C@@H](O)[C@H](O)[C@H]2OC(C)=O)ccc1O	
	CC(=O)Oc1ccccc1C(=O)O [ASPIRIN]	inhibition at 100 µM [2]: 15.8%; inhibition at 500 µM [3]: 39.4%; inhibition at 1000 µM [4]: 53.5%
4.72	COc1cc(-c2oc3cc(O)cc(O)c3c(=O)c2O[C@@H]2O[C@@H](C)[C@H](O)[C@@H](O)[C@H]2O)ccc1O	
< 4.52	C[C@@H]1O[C@@H](OC[C@H]2O[C@@H](Oc3c(-c4ccc(O)c(O)c4)oc4cc(O)cc(O)c4c3=O)[C@H](O[C@@H]3O[C@@H](C)[C@H](O)[C@@H](O)[C@H]3O)[C@@H](O)[C@H]2O)[C@H](O)[C@H](O)[C@H]1O	inhibition [5]: 40%
4.74	CC(=O)O[C@H]1[C@H](Oc2c(-c3ccc(O)c(O)c3)oc3cc(O)cc(O)c3c2=O)O[C@H](CO[C@@H]2O[C@@H](C)[C@H](O)[C@@H](O)[C@H]2O)[C@@H](O)[C@@H]1O	

From ChEMBL document CHEMBL1150613, “New flavonol oligoglycosides and polyacylated sucroses with inhibitory effects on aldose reductase and platelet aggregation from the flowers of Prunus mume” (J Nat Prod, 2002)
